{"source": "patent US10736856B2", "about": "“Use of xibornol as active agent in the treatment of viral infections” (priority 2016, dated 2020)", "assay_in_all_cases": "Xibornol virucidal efficacy test (UNI EN 14476 adapted), residual viral titer by Karber micromethod", "settings_in_all_cases": "for Average viral titre after 15 minutes contact / Logarithmic reduction: 15 minutes contact", "key": {"Human Rhinovirus": {"system": "Human Rhinovirus", "type": "cell-based, Human Rhinovirus A (ATCC VR-286), titrated on HeLa", "procedure": "(§1) The experimentation was conducted by using the following strains from ATCC: • VR-5 Human Adenovirus 5; Strain: Adenoid 75, • VR-286 Picornaviridae, Rhinovirus, Human Rhinovirus A, • VR-740 Human Coronavirus.\n(§2) The cell lines used for the isolation of the target viruses were: • ATCC CCL-2 HeLa—Cervical Adenocarcinoma—Human (Homo sapiens), briefly ‘HeLa’, for the study of Human Adenovirus 5 and Human Rhinovirus, and • ATCC CCL-171 MRC-5-Lung Fibroblast-Human (Homo Sapiens), briefly ‘MRC-5’ for the study of Human Coronavirus.\n(§3) The tests to assess the toxicity of xibornol were performed as per UNI EN 14476 protocol, which refers to the “virucidal activity of chemical disinfectants or antiseptics for tools, surfaces or hands forming a physically stable homogeneous mixture when diluted with hard water or water”, suitably adapted, also considering that xibornol is soluble in alcohol (ethanol) that is already well known to have toxic effects for cell cultures.\n(§4) Therefore, it was decided to use preparations in which xibornol was diluted with different solvents, in order also to be able to test both the solution and the suspension condition. After several tests, a reliable method was set up, by using Labrasol®, namely caprylocaproyl polyoxyl-8 glyceride, as solvent and formulating xibornol in solution.\n(§5) For each of the 3 viruses, 3 replicates were performed with 10 mL mixtures consisting of: • 1 mL Labrasol® (“clean” tests) or 1 mL of fetal bovine serum (“dirt” tests); • 8 mL xibornol for each dilution (8%, 3%, 0.5%) at the non-toxic concentration for the cell cultures: 10^−3, 10^−2 and 10^−1 respectively, and corresponding to 0.008 g/100 mL, 0.030 g/100 mL and […]. Dilutions made in Labrasol®; • 1 mL of virus with known titer.\n(§6) The tests carried out in “dirt” situations, specified by the standard protocol, were intended to create a more “difficult” environment for the performance of the virucidal activity by xibornol, hindered in its activity by the presence of further polluting components, as actually happens in the application environment of the active ingredient, allowing recreating and simulating as closely as possible the conditions of use.\n(§7) For tests performed in “dirt” condition, the erythrocytes were not mixed with the bovine fetal serum, as indicated by the European standard, because of the interfering effect they have towards the cell lines used in the tests, which would have led to difficulties in interpreting the results.\n(§8) Moreover, for each replicate, a negative control was used, consisting of: • 1 mL virus; • 9 mL Labrasol® (“clean” tests) or 8 mL Labrasol®+1 mL fetal bovine serum (“dirt” tests).\n(§9) Contact time: 15 minutes.\n(§10) After this interval, the mixtures were analysed to assess the residual viral titer by titration, Karber micromethod.\n(§11) The data obtained were analysed with the Excel program for the evaluation of averages and total logarithmic standard deviations."}, "Human Coronavirus": {"system": "Human Coronavirus", "type": "cell-based, Human Coronavirus (ATCC VR-740), titrated on MRC-5", "procedure": "as §1, §2, §3, §4, §5, §6, §7, §8, §9, §10, §11"}, "Human Adenovirus 5": {"system": "Human Adenovirus 5", "type": "cell-based", "procedure": "as §1, §2, §3, §4, §5, §6, §7, §8, §9, §10, §11"}, "[1]": {"settings": "after 15 minutes of contact, all concentrations tested (0.008, 0.030, 0.05 g/100 mL)"}, "[2]": {"settings": "extrapolated from trend curve to xibornol 3 g per 100 mL of solution"}, "[3]": {"settings": "“clean” test, working concentration 0.008 g/100 mL (8% solution, dilution 10^−3)"}, "[4]": {"settings": "“clean” test, working concentration 0.03 g/100 mL (3% solution, dilution 10^−2)"}, "[5]": {"settings": "“clean” test, working concentration 0.05 g/100 mL (0.5% solution, dilution 10^−1)"}, "[6]": {"settings": "“dirt” test (fetal bovine serum), working concentration 0.008 g/100 mL (8% solution, dilution 10^−3)"}, "[7]": {"settings": "“dirt” test (fetal bovine serum), working concentration 0.03 g/100 mL (3% solution, dilution 10^−2)"}, "[8]": {"settings": "“dirt” test (fetal bovine serum), working concentration 0.05 g/100 mL (0.5% solution, dilution 10^−1)"}}, "note": "Entries after “also recorded” stand apart in the source; their conditions may differ."}
{"smiles": "Cc1cc(O)c(C2CC3CCC2(C)C3(C)C)cc1C", "note": "(centres unmarked) [xibornol, 4,5-dimethyl-2-[1,7,7-trimethylbicyclo[2.2.1]heptan-2-yl]phenol]", "values": [{"measurement": "killing extent (reduction of viral load)", "setting": "Human Rhinovirus; [1]", "value": "greater than 2 orders of magnitude"}, {"measurement": "final average titer after treatment, extrapolated", "setting": "Human Rhinovirus; [2]", "value": "very close to zero"}, {"measurement": "reduction of the viral load titer (expressed as logarithm), extrapolated", "setting": "Human Rhinovirus; [2]", "value": "at least of two orders of magnitude; also recorded: almost total reduction"}, {"measurement": "Average viral titre after 15 minutes contact", "setting": "Human Rhinovirus; [3]", "value": "2 ± 0.1", "unit": "Log DCP50/mL"}, {"measurement": "Logarithmic reduction", "setting": "Human Rhinovirus; [3]", "value": 2.2}, {"measurement": "Average viral titre after 15 minutes contact", "setting": "Human Rhinovirus; [4]", "value": "1.3 ± 0.5", "unit": "Log DCP50/mL"}, {"measurement": "Logarithmic reduction", "setting": "Human Rhinovirus; [4]", "value": 2.9}, {"measurement": "Average viral titre after 15 minutes contact", "setting": "Human Rhinovirus; [5]", "value": "1.2 ± 0.4", "unit": "Log DCP50/mL"}, {"measurement": "Logarithmic reduction", "setting": "Human Rhinovirus; [5]", "value": 3}, {"measurement": "Average viral titre after 15 minutes contact", "setting": "Human Rhinovirus; [6]", "value": "1 ± 0.1", "unit": "Log DCP50/mL"}, {"measurement": "Logarithmic reduction", "setting": "Human Rhinovirus; [6]", "value": 2.8}, {"measurement": "Average viral titre after 15 minutes contact", "setting": "Human Rhinovirus; [7]", "value": "0.7 ± 0.1", "unit": "Log DCP50/mL"}, {"measurement": "Logarithmic reduction", "setting": "Human Rhinovirus; [7]", "value": 3.1}, {"measurement": "Average viral titre after 15 minutes contact", "setting": "Human Rhinovirus; [8]", "value": "0.8 ± 0.1", "unit": "Log DCP50/mL"}, {"measurement": "Logarithmic reduction", "setting": "Human Rhinovirus; [8]", "value": 3}, {"measurement": "reduction of the viral titer, average", "setting": "Human Rhinovirus; “dirt” tests", "value": "more than two orders of magnitude"}, {"measurement": "reduction of the viral titer, highest reached", "setting": "Human Rhinovirus; “dirt” tests", "value": "≥ 3 orders of magnitude"}, {"measurement": "killing extent (reduction of viral load)", "setting": "Human Coronavirus; [1]", "value": "greater than 2 orders of magnitude"}, {"measurement": "killing peak (reduction of viral load)", "setting": "Human Coronavirus; after 15 minutes of contact, highest value reached", "value": "3.8 orders of magnitude"}, {"measurement": "final average titer after treatment, extrapolated", "setting": "Human Coronavirus; [2]", "value": "very close to zero"}, {"measurement": "reduction of the viral load titer (expressed as logarithm), extrapolated", "setting": "Human Coronavirus; [2]", "value": "at least of two orders of magnitude; also recorded: almost total reduction"}, {"measurement": "Average viral titre after 15 minutes contact", "setting": "Human Coronavirus; [3]", "value": "1.8 ± 0.7", "unit": "Log DCP50/mL"}, {"measurement": "Logarithmic reduction", "setting": "Human Coronavirus; [3]", "value": 3.4}, {"measurement": "Average viral titre after 15 minutes contact", "setting": "Human Coronavirus; [4]", "value": "1.4 ± 0", "unit": "Log DCP50/mL"}, {"measurement": "Logarithmic reduction", "setting": "Human Coronavirus; [4]", "value": 3.8}, {"measurement": "Average viral titre after 15 minutes contact", "setting": "Human Coronavirus; [5]", "value": "1.6 ± 0.3", "unit": "Log DCP50/mL"}, {"measurement": "Logarithmic reduction", "setting": "Human Coronavirus; [5]", "value": 3.6}, {"measurement": "Average viral titre after 15 minutes contact", "setting": "Human Coronavirus; [6]", "value": "1.7 ± 0.7", "unit": "Log DCP50/mL"}, {"measurement": "Logarithmic reduction", "setting": "Human Coronavirus; [6]", "value": 2.3}, {"measurement": "Average viral titre after 15 minutes contact", "setting": "Human Coronavirus; [7]", "value": "1.5 ± 0.6", "unit": "Log DCP50/mL"}, {"measurement": "Logarithmic reduction", "setting": "Human Coronavirus; [7]", "value": 2.6}, {"measurement": "Average viral titre after 15 minutes contact", "setting": "Human Coronavirus; [8]", "value": "1.6 ± 0.4", "unit": "Log DCP50/mL"}, {"measurement": "Logarithmic reduction", "setting": "Human Coronavirus; [8]", "value": 2.5}, {"measurement": "reduction of the viral titer, average", "setting": "Human Coronavirus; “dirt” tests", "value": "more than two orders of magnitude"}, {"measurement": "killing extent (reduction of viral load)", "setting": "Human Adenovirus 5; [1]", "value": "greater than 2 orders of magnitude"}, {"measurement": "final average titer after treatment, extrapolated", "setting": "Human Adenovirus 5; [2]", "value": "very close to zero"}, {"measurement": "reduction of the viral load titer (expressed as logarithm), extrapolated", "setting": "Human Adenovirus 5; [2]", "value": "at least of two orders of magnitude; also recorded: almost total reduction"}, {"measurement": "Average viral titre after 15 minutes contact", "setting": "Human Adenovirus 5; [3]", "value": "2 ± 0.8", "unit": "Log DCP50/mL"}, {"measurement": "Logarithmic reduction", "setting": "Human Adenovirus 5; [3]", "value": 2.4}, {"measurement": "Average viral titre after 15 minutes contact", "setting": "Human Adenovirus 5; [4]", "value": "1.3 ± 1", "unit": "Log DCP50/mL"}, {"measurement": "Logarithmic reduction", "setting": "Human Adenovirus 5; [4]", "value": 3.1}, {"measurement": "Average viral titre after 15 minutes contact", "setting": "Human Adenovirus 5; [5]", "value": "1.1 ± 0.1", "unit": "Log DCP50/mL"}, {"measurement": "Logarithmic reduction", "setting": "Human Adenovirus 5; [5]", "value": 3.3}, {"measurement": "Average viral titre after 15 minutes contact", "setting": "Human Adenovirus 5; [6]", "value": "1.1 ± 0.6", "unit": "Log DCP50/mL"}, {"measurement": "Logarithmic reduction", "setting": "Human Adenovirus 5; [6]", "value": 2}, {"measurement": "Average viral titre after 15 minutes contact", "setting": "Human Adenovirus 5; [7]", "value": "1.2 ± 0.6", "unit": "Log DCP50/mL"}, {"measurement": "Logarithmic reduction", "setting": "Human Adenovirus 5; [7]", "value": 1.9}, {"measurement": "Average viral titre after 15 minutes contact", "setting": "Human Adenovirus 5; [8]", "value": "0.8 ± 0.5", "unit": "Log DCP50/mL"}, {"measurement": "Logarithmic reduction", "setting": "Human Adenovirus 5; [8]", "value": 2.3}, {"measurement": "reduction of the viral titer, average", "setting": "Human Adenovirus 5; “dirt” tests", "value": "more than two orders of magnitude"}]}
